l = locked nucleic acid (LNA); d = 2'-deoxy (DNA)

The series deals with mCD39 mRNA. Nature of the series: mCD39 mRNA knockdown efficacy screen in A20 cells (single dose, gymnotic delivery, QuantiGene Singleplex). Format: cell-based, mouse. The conditions noted are these: 10 μM, three days, normalized to HPRT1. The protocol: FIG. 14-1 and 14-2 show mCD39 mRNA knockdown efficacy of mCD39 antisense oligonucleotides in the murine cancer cell line A20 (mouse B cell lymphoma). A20 cells were treated with a single dose of 10 μM of the respective antisense oligonucleotide. As negative control, cells were treated with neg1, an antisense oligonucleotide having the sequence CGTTTAGGCTATGTACTT (SEQ ID NO:99). Residual mCD39 mRNA expression relative to untreated cells is depicted. Expression values were normalized to expression of the housekeeping gene HPRT1.
In order to analyze the efficacy of mCD39 antisense oligonucleotides with regard to the knockdown of mCD39 mRNA expression in a cancer cell line, A20 (mouse B cell lymphoma, ATCC) cells were treated with a single dose (concentration: 10 μM without addition of any transfection reagent; this process is called gymnotic delivery) of the respective antisense oligonucleotide as indicated in FIG. 14. As control, cells were treated with neg1, an antisense oligonucleotide having the sequence CGTTTAGGCTATGTACTT (SEQ ID NO:99). mCD39 and HPRT1 mRNA expression was analyzed after three days using the QuantiGene Singleplex assay (Affymetrix) and mCD39 expression values were normalized to HPRT1 expression values.
Consider “+T*+C*+G*T*A*G*T*C*T*C*C*A*G*T*+G*+C*+C (antisense TCGTAGTCTCCAGTGCC; sugars from the 5' end l3 d11 l3, all phosphorothioate, methylation of C not given here) [A04027MR]”, for which the “Relative mCD39 mRNA expression (compared to non-treated cells)” value came to 0.03.

Take “+T*+G*+G*C*A*C*T*G*T*T*C*G*T*+A*+G*+T (antisense TGGCACTGTTCGTAGT; sugars from the 5' end l3 d10 l3, all phosphorothioate, methylation of C not given here) [A04015MR]”: the “Relative mCD39 mRNA expression (compared to non-treated cells)” value turned out to be 0.32.

For the substance “+T*+G*+T*T*C*G*T*A*G*T*C*T*C*C*+A*+G*+T (antisense TGTTCGTAGTCTCCAGT; sugars from the 5' end l3 d11 l3, all phosphorothioate, methylation of C not given here) [A04029MR]”, the “Relative mCD39 mRNA expression (compared to non-treated cells)” value worked out at 0.11.

For “+T*+T*+C*G*T*A*G*T*C*T*C*C*A*G*+T*+G*+C (antisense TTCGTAGTCTCCAGTGC; sugars from the 5' end l3 d11 l3, all phosphorothioate, methylation of C not given here) [A04028MR]”, the “Relative mCD39 mRNA expression (compared to non-treated cells)” value is recorded as 0.02.

(Values after US11959083B2, “Immunosuppression-reverting oligonucleotides inhibiting the expression of CD39” (Secarna Pharmaceuticals GmbH & Co. KG, priority 2016, dated 2024).)
